What all share (format): in vivo
One assay deals with Setaria. In words: Field test, postemergence herbicidal activity on Setaria in sulfonylurea-resistant rape. To be noted: four weeks after the treatment; for pest or weed control at 1 g/ha: Setaria, post-emergence, 672 h, read-out: Injury of Setaria % Experimental value. The source says:
(§1) A synergistic effect exists when the effect of the composition exceeds the sum of the effects of the compounds applied separately.
(§2) If the actually observed activity (O) is greater than the expected activity (E), then the composition is superadditive, i.e., synergism is present.
(§3) Sulfonylurea herbicides-resistant non-genetically modified rape crops were planted with typical weeds under natural outdoors conditions. When the rape plants grew, the weed populations naturally occurred. The weeds were treated during postemergence at 2-4 leaf stage.

For a further assay, the system named is Galium. As to the kind of experiment: Field test, postemergence herbicidal activity on Galium in sulfonylurea-resistant rape. To be noted: four weeks after the treatment; for pest or weed control at 0.1 g/ha: Galium, post-emergence, 672 h, read-out: Injury of Galium % Experimental value.
Excerpt: as §1, §2, §3

In the next assay the test system is Datura. As to the kind of experiment: Field test, postemergence herbicidal activity against Datura in sulfonylurea-resistant rape. As to conditions: four weeks after the treatment; for pest or weed control at 5 g/ha: Datura, post-emergence, 672 h, read-out: Injury of Datura % Experimental value.
Excerpt: as §1, §2, §3

A further assay relates to Chenopodium. As to the kind of experiment: Field test, postemergence herbicidal activity on Chenopodium in sulfonylurea-resistant rape.
Excerpt: (§4) A synergistic effect exists when the effect of the composition exceeds the sum of the effects of the compounds applied separately. The expected effect for a specific combination of two active compounds can be calculated using a so-called “Colby formula” (see S. R. Colby, “Calculating Synergistic and Antagonistic Responses of Herbicide Combinations”, Weeds 1967,15, 20-22) as follows: if
as §2
(§5) Sulfonylurea herbicides-resistant non-genetically modified rape crops were planted with typical weeds under natural outdoors conditions. When the rape plants grew, the weed populations naturally occurred. The weeds were treated during postemergence at 2-4 leaf stage. To reflect the synergistic effect, they were treated with a lower dosage than the common dosage.

A further assay relates to Beckmannia. In words: Field test, postemergence herbicidal activity on Beckmannia in sulfonylurea-resistant rape.
Excerpt: as §4, §2, §5

A further assay relates to Alopecurus. In words: Field test, postemergence herbicidal activity on Alopecurus in sulfonylurea-resistant rape. To be noted: four weeks after the treatment; for pest or weed control at 10 g/ha: Alopecurus, post-emergence, 672 h, read-out: Injury of Alopecurus % Experimental value.
Excerpt: as §1, §2, §3

The subject of a further assay is Stellaria. As to the kind of experiment: Field test, postemergence herbicidal activity on Stellaria in sulfonylurea-resistant rape. To be noted: 10 gram ai/ha, four weeks after the treatment; for pest or weed control at 10 g/ha: Stellaria, post-emergence, 672 h, read-out: Injury of Stellaria % Experimental value.
Excerpt: as §1, §2, §3

[1] abbreviates: sulfonylurea alone, 1 gram ai/ha.
Where [2] appears, read: sulfonylurea alone, 0.1 gram ai/ha.
[3] abbreviates: sulfonylurea alone, 5 gram ai/ha.
Setting [4] is: Chenopodium, post-emergence, 672 h, sulfonylurea alone, 10 gram ai/ha, four weeks after the treatment, read-out: Injury of Chenopodium % Experimental value.
The mark [5] stands for this setting: post-emergence, 672 h, sulfonylurea alone, 10 gram ai/ha, four weeks after the treatment, read-out: Injury of Beckmannia % Experimental value.
Where [6] appears, read: sulfonylurea alone, 10 gram ai/ha.
Setting [7] is: sulfonylurea alone, 10 gram ai/ha, four weeks after the treatment.

Consider `COc1cc(OC)nc(NC(=O)NS(=O)(=O)N(C)S(C)(=O)=O)n1` [amidosulfuron, 1-(4,6-dimethoxypyrimidin-2-yl)-3-mesyl(methyl)sulfamoylurea], for which the pest or weed control at 1 g/ha in the assay on Setaria (setting [1]) came to 0%. Moreover, in the assay on Galium (setting [2]), the pest or weed control at 0.1 g/ha was 5%. For the same molecule, the pest or weed control at 5 g/ha in the assay on Datura (setting [3]) was 27%. Besides, the pest or weed control at 10 g/ha in the assay with Chenopodium (setting [4]) was determined as 35.8%; in the assay with Beckmannia (setting [5]), 0%; in the assay with Alopecurus (setting [6]) it was 0%; with Stellaria (sulfonylurea alone), 35%.

As for `COc1nc(C)nc(NC(=O)NS(=O)(=O)c2ccccc2OCCCl)n1` [triasulfuron, 1-[2-(2-chloroethoxyl)phenylsulfonyl]-3-(4-methoxy-6-methyl-1,3,5-triazin-2-yl)urea], in the assay on Setaria (setting [1]), the pest or weed control at 1 g/ha was found to be 0%. Besides, in the assay with Galium (setting [2]), the pest or weed control at 0.1 g/ha was determined as 13%. Further, the pest or weed control at 5 g/ha in the assay on Datura (setting [3]) stood at 28%. For the same molecule, the pest or weed control at 10 g/ha in the assay on Chenopodium (setting [4]) was 22.5%; with Beckmannia (setting [5]), 0%; in the assay on Alopecurus (setting [6]), 0%; with Stellaria (sulfonylurea alone), 40%.

Regarding `COc1cc(OC)nc(NC(=O)NS(=O)(=O)Nc2ccccc2C(=O)C2CC2)n1` [cyclosulfamuron], the pest or weed control at 1 g/ha with Setaria (setting [1]) was determined as 0%. In addition, in the assay with Galium (setting [2]), the pest or weed control at 0.1 g/ha was 9%. The pest or weed control at 5 g/ha in the assay with Datura (setting [3]) was determined as 26%. For the same molecule, the pest or weed control at 10 g/ha in the assay with Chenopodium (setting [4]) is 4.1%; with Beckmannia (setting [5]) it was 0%; in the assay with Alopecurus (setting [6]), 0%; with Stellaria (sulfonylurea alone), 48%.

`COC(=O)c1ccccc1S(=O)(=O)NC(=O)Nc1nc(C)nc(OC)n1` [metsulfuron-methyl, methyl 2-[(4-methoxy-6-methyl-1,3,5-triazin-2-yl)ureidosulfonyl]benzoate]: in the assay with Setaria (setting [1]), the pest or weed control at 1 g/ha was 0%. Also, the pest or weed control at 0.1 g/ha in the assay with Galium (setting [2]) worked out at 11%. In addition, the pest or weed control at 5 g/ha with Datura (setting [3]) amounted to 27%. In addition, the pest or weed control at 10 g/ha in the assay on Chenopodium (setting [4]) was determined as 88.4%; in the assay on Beckmannia (setting [5]), 24.8%; in the assay on Alopecurus (setting [6]) it was 82%; in the assay on Stellaria (sulfonylurea alone), 58%.

In the case of `CCC/C(=N\OCC)C1=C(O)CC(CC(C)SCC)CC1=O` (racemic) [sethoxydim, (±)-2-[1-(ethoxyimino)butyl]-5-[2-(ethylthio)propyl]-3-hydroxy-2-cyclo hexen-1-one], in the assay with Chenopodium (Chenopodium, post-emergence, 672 h, read-out: Injury of Chenopodium % Experimental value), the pest or weed control at 0.1 g/ha was determined as 0%. The pest or weed control at 0.2 g/ha with Beckmannia (post-emergence, 672 h, read-out: Injury of Beckmannia % Experimental value) was 0%.

With `Cc1ccnc(NC(=O)NS(=O)(=O)c2ccccc2[N+](=O)[O-])n1` [monosulfuron], the “Injury of Setaria % Experimental value” in the assay on Setaria (setting [1]) turned out to be 0%. For the same molecule, the “Injury of Galium % Experimental value” with Galium (setting [2]) came out at 7%. Also, the “Injury of Datura % Experimental value” in the assay on Datura (setting [3]) is reported as 24%. The “Injury of Chenopodium % Experimental value” with Chenopodium (setting [7]) worked out at 23.5%. In the assay on Beckmannia (setting [7]), the “Injury of Beckmannia % Experimental value” was 7%. For the same molecule, the “Injury of Alopecurus % Experimental value” in the assay with Alopecurus (setting [6]) worked out at 5%. For the same molecule, in the assay on Stellaria (sulfonylurea alone), the “Injury of Stellaria % Experimental value” amounted to 34%.

Turning to `COc1nc(C)nc(NC(=O)NS(=O)(=O)c2ccccc2Cl)n1` [chlorsulfuron], the pest or weed control at 1 g/ha in the assay with Setaria (setting [1]) is 0%. Also, in the assay with Galium (setting [2]), the pest or weed control at 0.1 g/ha was 10%. The pest or weed control at 5 g/ha with Datura (setting [3]) was determined as 34%. For the same molecule, the pest or weed control at 10 g/ha in the assay on Chenopodium (setting [4]) is 53.6%; with Beckmannia (setting [5]), 36.2%; with Alopecurus (setting [6]), 54%; with Stellaria (sulfonylurea alone), 55%.

As to `COC(=O)c1sccc1S(=O)(=O)NC(=O)Nc1nc(C)nc(OC)n1` [thifensulfuron-methyl, 3-(4-methoxy-6-methyl-1,3,5-triazin-2-yl)-1-(2-methoxyformylthiophen-3-yl)-sulfonylurea], the pest or weed control at 1 g/ha in the assay with Setaria (setting [1]) is 0%. Also, the pest or weed control at 0.1 g/ha with Galium (setting [2]) amounted to 8%. Further, the pest or weed control at 5 g/ha in the assay on Datura (setting [3]) is 22%. Also, the pest or weed control at 10 g/ha with Chenopodium (setting [4]) was found to be 8.1%; with Beckmannia (setting [5]), 0%; in the assay with Alopecurus (setting [6]), 0%; with Stellaria (sulfonylurea alone) it was 57%.

For the molecule `COc1cc(OC)nc(NC(=O)NS(=O)(=O)c2ncccc2C(=O)N(C)C)n1` [nicosulfuron, 2-(4,6-dimethoxypyrimidin-2-ylcarbamoylsulfamoyl)-N,N-dimethylnicotinamide], in the assay on Setaria (setting [1]), the pest or weed control at 1 g/ha stood at 2%. The pest or weed control at 0.1 g/ha with Galium (setting [2]) was 1%. Besides, in the assay on Datura (setting [3]), the pest or weed control at 5 g/ha amounted to 11%. The pest or weed control at 10 g/ha was 4% with Chenopodium (setting [4]), 50.3% in the assay on Beckmannia (setting [5]), 5% with Alopecurus (setting [6]) and 60% in the assay on Stellaria (sulfonylurea alone).

Take “(±)-2-[(E)-3-chloroallyloxyimino]propyl-5-[2-(ethylthio) propyl]-3-hydroxycyclohexen-2-one [clethodim]”: the “Injury of Setaria % Experimental value” in the assay with Setaria (clethodim alone, 50 gram ai/ha) was determined as 57.4%. Further, the “Injury of Galium % Experimental value” in the assay on Galium (clethodim alone, 10 gram ai/ha) came out at 0%. Also, the “Injury of Datura % Experimental value” in the assay with Datura (clethodim alone, 50 gram ai/ha) came to 0%. For the same molecule, the “Injury of Alopecurus % Experimental value” in the assay on Alopecurus (clethodim alone, 1 gram ai/ha) was determined as 5%. The “Injury of Stellaria % Experimental value” in the assay with Stellaria (clethodim alone) came to 0%.

For `COC(=O)c1ccccc1CS(=O)(=O)NC(=O)Nc1nc(OC)cc(OC)n1` [bensulfuron-methyl, methyl 2-[((4,6-dimethoxypyrimidin-2-yl)aminocarbonylamino]sulfonylmethyl)benzoate], the pest or weed control at 1 g/ha in the assay with Setaria (setting [1]) worked out at 0%. Besides, in the assay with Galium (setting [2]), the pest or weed control at 0.1 g/ha was determined as 16%. For the same molecule, the pest or weed control at 5 g/ha with Datura (setting [3]) came to 32%. In addition, the pest or weed control at 10 g/ha in the assay with Chenopodium (setting [4]) was 12.2%; in the assay on Beckmannia (setting [5]), 0%; in the assay on Alopecurus (setting [6]), 0%; in the assay on Stellaria (sulfonylurea alone), 64%.

Source of the values: patent US20150126369A1, “SYNERGISTIC HERBICIDAL COMPOSITION” (ROTAM AGROCHEM INTERNATIONAL COMPANY LIMITED, priority 2013, published 2015).
